In brackets after ≈: the same amount, converted by molar mass. A value given as a limit tells only on which side of the number the result lay.

Among the data in ChEMBL document CHEMBL1151449, “In vitro activity of DC-159a, a new broad-spectrum fluoroquinolone, compared with that of other agents against drug-susceptible and -resistant pneumococci” (2008) are MIC, MIC50 and MIC90 values, retold here.

Holding throughout (format): functional
Assay [1] relates to Streptococcus pneumoniae. As to the kind of experiment: Antibacterial activity against penicillin-resistant and quinolone-susceptible Streptococcus pneumoniae HMC 3583 expressing mefA and harboring I460V mutation in QRDR of ParE gene after 41 passages with gemifloxacin measured after 10 daily antibiotic-free subculturing by multi-step resistance selection technique.
In assay [2] the test system is Streptococcus pneumoniae. As to the kind of experiment: Antibacterial activity against macrolide-, quinolone-susceptible and penicillin-intermediate Streptococcus pneumoniae HMC 100 by broth microdilution method. (In general: In broth dilution the organism is exposed to a series of concentrations in liquid medium.)
Assay [3] relates to Streptococcus pneumoniae. The assay is described as follows: Antibacterial activity against penicillin-resistant and quinolone-susceptible Streptococcus pneumoniae HMC 3583 expressing mefA after 50 passages by broth microdilution method.
The test system of assay [4] is Streptococcus pneumoniae. The assay is described as follows: Antibacterial activity against penicillin-, quinolone-resistant and macrolide-susceptible Streptococcus pneumoniae HMC 1058 harboring S79F, K137N mutation in quinolone-resistant determining regions of ParC gene and 460V mutation in QRDR of ParE gene by broth microdilution method.
For assay [5], the system named is Streptococcus pneumoniae. The assay is described as follows: Antibacterial activity against penicillin-, macrolide- and quinolone-susceptible Streptococcus pneumoniae HMC 63 after 50 passages by broth microdilution method.
In assay [6] the test system is Streptococcus pneumoniae. The assay is described as follows: Antibacterial activity against quinolone-resistant Streptococcus pneumoniae […] by agar dilution method.
The subject of assay [7] is Streptococcus pneumoniae. As to the kind of experiment: Antibacterial activity against penicillin-resistant and quinolone-susceptible Streptococcus pneumoniae HMC 228 expressing ermB and harboring S81F mutation in quinolone-resistant determining regions of GyrA gene, S79Y mutation in QRDR of ParC gene and I460V mutation in QRDR of ParE gene after 36 passages with moxifloxacin measured after 10 daily antibiotic-free subculturing by multi-step resistance selection technique.

The subject of assay [8] is Streptococcus pneumoniae. As to the kind of experiment: Antibacterial activity against azithromycin-resistant Streptococcus pneumoniae […] by agar dilution method. On the technique in general: Agar dilution tests growth on a series of plates holding different concentrations.
For assay [9], the system named is Streptococcus pneumoniae. As to the kind of experiment: Antibacterial activity against macrolide-, quinolone-susceptible and penicillin-intermediate Streptococcus pneumoniae HMC 100 after 50 passages by broth microdilution method.
The test system of assay [10] is Streptococcus pneumoniae. The assay is described as follows: Antibacterial activity against macrolide-, quinolone-susceptible and penicillin-intermediate Streptococcus pneumoniae HMC 100 harboring S79Y mutation in quinolone-resistant determining regions of ParC gene after 34 passages with gemifloxacin measured after 10 daily antibiotic-free subculturing by multi-step resistance selection technique.

Assay [11] concerns Streptococcus pneumoniae. The assay is described as follows: Antibacterial activity against penicillin-, macrolide- and quinolone-susceptible Streptococcus pneumoniae HMC 63 harboring S81F mutation in quinolone-resistant determining regions of GyrA gene, D83Y mutation in QRDR of ParC gene and I460V mutation in QRDR of ParE gene after 34 passages with gemifloxacin measured after 10 daily antibiotic-free subculturing by multi-step resistance selection technique.

The test system of assay [12] is Streptococcus pneumoniae. As to the kind of experiment: Antibacterial activity against penicillin-, macrolide- and quinolone-susceptible Streptococcus pneumoniae HMC 63 by broth microdilution method.
The test system of assay [13] is Streptococcus pneumoniae. As to the kind of experiment: Antibacterial activity against penicillin-resistant Streptococcus pneumoniae […] by agar dilution method.
In assay [14] the test system is Streptococcus pneumoniae. As to the kind of experiment: Antibacterial activity against penicillin-resistant and quinolone-susceptible Streptococcus pneumoniae HMC 3583 expressing mefA and harboring S81F mutation in quinolone-resistant determining regions of GyrA gene, D83N mutation in QRDR of ParC gene and I460V mutation in QRDR of ParE gene after 44 passages with levofloxacin measured after 10 daily antibiotic-free subculturing by multi-step resistance selection technique.

Assay [15] has as its system Streptococcus pneumoniae. The assay is described as follows: Antibacterial activity against penicillin- and quinolone-susceptible Streptococcus pneumoniae HMC 5055 expressing mefA by broth microdilution method.
Assay [16] relates to Streptococcus pneumoniae. As to the kind of experiment: Antibacterial activity against quinolone-susceptible and penicillin-intermediate Streptococcus pneumoniae HMC 441 expressing ermB by broth microdilution method.
Assay [17] deals with Streptococcus pneumoniae. As to the kind of experiment: Antibacterial activity against penicillin-, quinolone-resistant Streptococcus pneumoniae HMC 1541 harboring mutation in L4 protein by broth microdilution method.
Assay [18] concerns Streptococcus pneumoniae. The assay is described as follows: Antibacterial activity against Streptococcus pneumoniae HMC 4026 harboring S81Y mutation in quinolone-resistant determining regions of GyrA gene, S79F, K137N mutation in QRDR of ParC gene and I460V mutation in QRDR of ParE gene by agar dilution method.
Assay [19] has as its system Streptococcus pneumoniae. As to the kind of experiment: Antibacterial activity against Streptococcus pneumoniae HMC 1060 harboring S81F mutation in quinolone-resistant determining regions of GyrA gene, S79F, K137N mutation in QRDR of ParC gene and I460V mutation in QRDR of ParE gene by agar dilution method.
Assay [20] deals with Streptococcus pneumoniae. As to the kind of experiment: Antibacterial activity against Streptococcus pneumoniae HMC 1055 harboring S81F mutation in quinolone-resistant determining regions of GyrA gene, S79F, K137N mutation in QRDR of ParC gene and I460V mutation in QRDR of ParE gene by agar dilution method.
Assay [21] relates to Streptococcus pneumoniae. As to the kind of experiment: Antibacterial activity against Streptococcus pneumoniae HMC 5041 harboring S81F and S79F mutation in quinolone-resistant determining regions of GyrA and ParC genes respectively by agar dilution method.
In assay [22] the test system is Streptococcus pneumoniae. As to the kind of experiment: Antibacterial activity against penicillin-susceptible, quinolone-resistant Streptococcus pneumoniae HMC 1072 expressing ermB and harboring S81F mutation in quinolone-resistant determining regions of GyrA gene, S79Y mutation in QRDR of ParC gene and I460V mutation in QRDR of ParE gene after 50 passages by broth microdilution method.

In assay [23] the test system is Streptococcus pneumoniae. As to the kind of experiment: Antibacterial activity against Streptococcus pneumoniae HMC 1062 harboring S81F mutation in quinolone-resistant determining regions of GyrA gene, S79F mutation in QRDR of ParC gene and I460V mutation in QRDR of ParE gene by agar dilution method.
The test system of assay [24] is Streptococcus pneumoniae. As to the kind of experiment: Antibacterial activity against Streptococcus pneumoniae HMC 1076 harboring S81F mutation in quinolone-resistant determining regions of GyrA gene, D83N mutation in QRDR of ParC gene and I460V mutation in QRDR of ParE gene by agar dilution method.
Assay [25] deals with Streptococcus pneumoniae. As to the kind of experiment: Antibacterial activity against Streptococcus pneumoniae HMC 3041 after 50 passages by broth microdilution method.
Assay [26] concerns Streptococcus pneumoniae. The assay is described as follows: Antibacterial activity against Streptococcus pneumoniae HMC 1058 harboring S79F, K137N mutation in quinolone-resistant determining regions of ParC gene and 460V mutation in QRDR of ParE gene by agar dilution method.
The test system of assay [27] is Streptococcus pneumoniae. The assay is described as follows: Antibacterial activity against Streptococcus pneumoniae HMC 1074 harboring S81F mutation in quinolone-resistant determining regions of GyrA gene, S79F mutation in QRDR of ParC gene and I460V mutation in QRDR of ParE gene by agar dilution method.
The subject of assay [28] is Streptococcus pneumoniae. The assay is described as follows: Antibacterial activity against Streptococcus pneumoniae HMC 1151 harboring D83N, K137N mutation in quinolone-resistant determining regions of ParC gene and I460V mutation in QRDR of ParE gene showing efflux to ciprofloxacin, gemifloxacin by agar dilution method.
Assay [29] deals with Streptococcus pneumoniae. As to the kind of experiment: Antibacterial activity against Streptococcus pneumoniae HMC 1070 harboring S81F mutation in quinolone-resistant determining regions of GyrA gene, D83N mutation in QRDR of ParC gene and I460V mutation in QRDR of ParE gene by agar dilution method.
Assay [30] concerns Streptococcus pneumoniae. The assay is described as follows: Antibacterial activity against Streptococcus pneumoniae HMC 2536 harboring S81Y mutation in quinolone-resistant determining regions of GyrA gene, S79F, K137N mutation in QRDR of ParC gene and I460V mutation in QRDR of ParE gene by agar dilution method.

`CC[C@H]1OC(=O)[C@H](C)[C@@H](O[C@H]2C[C@@](C)(OC)[C@@H](O)[C@H](C)O2)[C@H](C)[C@@H](O[C@@H]2O[C@H](C)C[C@H](N(C)C)[C@H]2O)[C@](C)(O)C[C@@H](C)CN(C)[C@H](C)[C@@H](O)[C@]1(C)O` [AZITHROMYCIN]: the MIC (commonly the lowest concentration found to suppress growth) with Streptococcus pneumoniae [1] is 0.25 µg/mL (≈ 0.334 µM); with Streptococcus pneumoniae [2], 0.03 µg/mL (≈ 0.0401 µM); with Streptococcus pneumoniae [3] it was 4 µg/mL (≈ 5.34 µM); in the assay with Streptococcus pneumoniae [4], 0.06 µg/mL (≈ 0.0801 µM); with Streptococcus pneumoniae [5], 0.06 µg/mL (≈ 0.0801 µM); in the assay on Streptococcus pneumoniae [7], > 64 µg/mL. Besides, the MIC is 0.03 µg/mL (≈ 0.0401 µM) in the assay on Streptococcus pneumoniae [9]; 0.06 µg/mL (≈ 0.0801 µM) with Streptococcus pneumoniae [10]; 0.03 µg/mL (≈ 0.0401 µM) against Streptococcus pneumoniae [11]; 0.016 µg/mL (≈ 0.0214 µM) against Streptococcus pneumoniae [12]; 2 µg/mL (≈ 2.67 µM) in the assay with Streptococcus pneumoniae [14]; 2 µg/mL (≈ 2.67 µM) against Streptococcus pneumoniae [15]. Moreover, the minimal inhibitory concentration (MIC) against Streptococcus pneumoniae [16] and against Streptococcus pneumoniae [17] was > 64 µg/mL in each case. The MIC50 (in general, the lowest concentration that inhibits either 50% of growth or 50% of the strains tested, depending on the study) in the assay with Streptococcus pneumoniae [6] is 0.06 µg/mL (≈ 0.0801 µM); against Streptococcus pneumoniae [8], > 64 µg/mL; in the assay with Streptococcus pneumoniae [13], 2 µg/mL (≈ 2.67 µM).
As for `CO/N=C1\CN(c2nc3c(cc2F)c(=O)c(C(=O)O)cn3C2CC2)CC1CN` (configuration not stated) [GEMIFLOXACIN], the minimum inhibitory concentration (MIC) in the assay with Streptococcus pneumoniae [1] was 2 µg/mL (≈ 5.14 µM); with Streptococcus pneumoniae [18], 0.5 µg/mL (≈ 1.28 µM); in the assay with Streptococcus pneumoniae [19] it was 0.25 µg/mL (≈ 0.642 µM); in the assay on Streptococcus pneumoniae [20], 0.5 µg/mL (≈ 1.28 µM); in the assay with Streptococcus pneumoniae [2], 0.06 µg/mL (≈ 0.154 µM); with Streptococcus pneumoniae [4], 0.12 µg/mL (≈ 0.308 µM). In addition, the MIC amounted to 0.5 µg/mL (≈ 1.28 µM) in the assay on Streptococcus pneumoniae [21]; 2 µg/mL (≈ 5.14 µM) in the assay with Streptococcus pneumoniae [7]; 1 µg/mL (≈ 2.57 µM) with Streptococcus pneumoniae [22]; 1 µg/mL (≈ 2.57 µM) with Streptococcus pneumoniae [23]; 0.5 µg/mL (≈ 1.28 µM) in the assay on Streptococcus pneumoniae [24]; 1 µg/mL (≈ 2.57 µM) against Streptococcus pneumoniae [10]. In addition, the MIC with Streptococcus pneumoniae [25] is 0.03 µg/mL (≈ 0.077 µM); in the assay with Streptococcus pneumoniae [11] it was 0.5 µg/mL (≈ 1.28 µM); with Streptococcus pneumoniae [12] it was 0.06 µg/mL (≈ 0.154 µM); in the assay with Streptococcus pneumoniae [26] it was 0.125 µg/mL (≈ 0.321 µM); against Streptococcus pneumoniae [27], 0.5 µg/mL (≈ 1.28 µM); in the assay with Streptococcus pneumoniae [28], 0.25 µg/mL (≈ 0.642 µM). Besides, the MIC against Streptococcus pneumoniae [14] amounted to 0.25 µg/mL (≈ 0.642 µM); against Streptococcus pneumoniae [15], 0.03 µg/mL (≈ 0.077 µM); against Streptococcus pneumoniae [16], 0.016 µg/mL (≈ 0.0411 µM); against Streptococcus pneumoniae [17], 0.5 µg/mL (≈ 1.28 µM); in the assay on Streptococcus pneumoniae [29], 0.25 µg/mL (≈ 0.642 µM); in the assay with Streptococcus pneumoniae [30] it was 0.125 µg/mL (≈ 0.321 µM). The figures for the MIC50 against Streptococcus pneumoniae [6], against Streptococcus pneumoniae [8] and in the assay on Streptococcus pneumoniae [13] were 0.25 µg/mL (≈ 0.642 µM), 0.03 µg/mL (≈ 0.077 µM) and 0.03 µg/mL (≈ 0.077 µM), respectively. The MIC90 (in general, an inhibitory concentration at the 90% level, which refers to growth in some studies and to a panel of isolates in others) in the assay with Streptococcus pneumoniae [6] is 1 µg/mL (≈ 2.57 µM); in the assay on Streptococcus pneumoniae [8] it was 0.06 µg/mL (≈ 0.154 µM); against Streptococcus pneumoniae [13], 0.25 µg/mL (≈ 0.642 µM).
